Tests used:
Assay in all cases: Antifungal growth assay in potato dextrose broth, 24-well
Assay type in all cases: cell-based
Set-up in all cases: key: NI, no inhibition; p (partial), at least 50% inhibited
Sclerotinia sclerotiorum = conditions: 2x assays
Summary of the method: (§1)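 Read-out: visual growth versus a DMSO-only control at day 2 and day 5, with later days for slow growers. The value is the lowest ug/ml giving no growth, and "partial" means at least 50% inhibition. Final doses were 50–1.56 ug/ml, or 2–0.0625 ug/ml when repeated.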

Alternaria helianthi = conditions: 2x assays
Summary of the method: as §1

[1] = tested on: Fusarium oxysporum cubense
Summary of the method: as §1

Aphanomyces sp. = conditions: 2x assays
Summary of the method: as §1

Fusarium solani = tested on: Fusarium solani
Summary of the method: as §1

Fusarium avenaceum = tested on: Fusarium avenaceum
Summary of the method: as §1

Phytophthora parasitica = tested on: Phytophthora parasitica
Summary of the method: as §1

Stagonospora nodorum = tested on: Stagonospora nodorum
Summary of the method: as §1

Verticillium dahliae = conditions: 2x assays
Summary of the method: as §1

Phoma chrysamthecola = conditions: five day results
Summary of the method: as §1

Phytophthora cinnemani = tested on: Phytophthora cinnemani
Summary of the method: as §1

Drechslera teres = tested on: Drechslera teres
Summary of the method: as §1

Bipolaris sorokiniana = tested on: Bipolaris sorokiniana
Summary of the method: as §1

Substance | lowest level of compound that results in no growth (Sclerotinia sclerotiorum; five day results) | lowest level of compound that results in no growth (Sclerotinia sclerotiorum; two day results) | lowest level of compound that results in no growth (Alternaria helianthi; five day results) | lowest level of compound that results in no growth (Alternaria helianthi; two day results) | lowest level of compound that results in no growth ([1]; five day results) | lowest level of compound that results in no growth ([1]; two day results) | lowest level of compound that results in no growth (Aphanomyces sp.; five day results) | lowest level of compound that results in no growth (Aphanomyces sp.; two day results) | lowest level of compound that results in no growth (Fusarium solani; five day results) | lowest level of compound that results in no growth (Fusarium solani; two day results) | lowest level of compound that results in no growth (Fusarium avenaceum; five day results) | lowest level of compound that results in no growth (Fusarium avenaceum; two day results) | lowest level of compound that results in no growth (Phytophthora parasitica; five day results) | lowest level of compound that results in no growth (Phytophthora parasitica; two day results) | lowest level of compound that results in no growth (Stagonospora nodorum; five day results) | lowest level of compound that results in no growth (Stagonospora nodorum; two day results) | lowest level of compound that results in no growth (Verticillium dahliae; five day results) | lowest level of compound that results in no growth (Verticillium dahliae; two day results) | lowest level of compound that results in no growth (Phoma chrysamthecola) | lowest level of compound that results in no growth (Phytophthora cinnemani; five day results) | also measured
Pseudomycin B | NI | p at 50 | 50 µg/mL | NI | NI | NI | 50 µg/mL | p at 50 | NI | p at 50 | NI | NI | NI | NI | NI | NI | p at 50 | 25 µg/mL | p at 50 | NI | lowest level of compound that results in no growth (Phytophthora cinnemani; two day results): NI; lowest level of compound that results in no growth (Drechslera teres; five day results): NI; lowest level of compound that results in no growth (Drechslera teres; two day results): NI; lowest level of compound that results in no growth (Bipolaris sorokiniana; five day results): NI; lowest level of compound that results in no growth (Bipolaris sorokiniana; two day results): NI
Pseudomycin B′ | NI | NI | 25 µg/mL | 25 µg/mL | NI | NI | NI | 25 µg/mL | NI | NI | NI | NI | NI | NI | NI | NI | NI | NI | p at 50 | NI | lowest level of compound that results in no growth (Phytophthora cinnemani; two day results): NI; lowest level of compound that results in no growth (Drechslera teres; five day results): NI; lowest level of compound that results in no growth (Drechslera teres; two day results): NI; lowest level of compound that results in no growth (Bipolaris sorokiniana; five day results): NI; lowest level of compound that results in no growth (Bipolaris sorokiniana; two day results): NI
Pseudomycin C | NI | NI | NI | p at 50 | NI | NI | 50 µg/mL | 25 µg/mL | NI | p at 50 | NI | NI | NI | NI | NI | NI | p at 50 | 25 µg/mL | NI | NI | lowest level of compound that results in no growth (Phytophthora cinnemani; two day results): NI; lowest level of compound that results in no growth (Drechslera teres; five day results): NI; lowest level of compound that results in no growth (Drechslera teres; two day results): NI; lowest level of compound that results in no growth (Bipolaris sorokiniana; five day results): NI; lowest level of compound that results in no growth (Bipolaris sorokiniana; two day results): NI
Pseudomycin C′ | p at 50 | 50 µg/mL | NI | p at 50 | NI | NI | p at 50 | 25 µg/mL | NI | NI | NI | NI | NI | NI | NI | NI | p at 50 | p at 50 | NI | NI | lowest level of compound that results in no growth (Phytophthora cinnemani; two day results): NI; lowest level of compound that results in no growth (Drechslera teres; five day results): NI; lowest level of compound that results in no growth (Drechslera teres; two day results): NI; lowest level of compound that results in no growth (Bipolaris sorokiniana; five day results): NI; lowest level of compound that results in no growth (Bipolaris sorokiniana; two day results): NI
pseudomycin A-FB | NI | NI | 25 µg/mL | 25 µg/mL | NI | NI | NI | NI | NI | p at 50 | NI | NI | NI | NI | NI | NI | p at 50 | 50 µg/mL | p at 50 | NI | lowest level of compound that results in no growth (Phytophthora cinnemani; two day results): NI; lowest level of compound that results in no growth (Drechslera teres; five day results): NI; lowest level of compound that results in no growth (Drechslera teres; two day results): NI; lowest level of compound that results in no growth (Bipolaris sorokiniana; five day results): NI; lowest level of compound that results in no growth (Bipolaris sorokiniana; two day results): NI
pseudomycin A-PO4 | NI | NI | 25 µg/mL | 25 µg/mL | NI | NI | p at 50 | 50 µg/mL | NI | NI | NI | NI | NI | NI | NI | NI | p at 50 | p at 50 | NI | NI | lowest level of compound that results in no growth (Phytophthora cinnemani; two day results): NI; lowest level of compound that results in no growth (Drechslera teres; five day results): NI; lowest level of compound that results in no growth (Drechslera teres; two day results): NI; lowest level of compound that results in no growth (Bipolaris sorokiniana; five day results): NI; lowest level of compound that results in no growth (Bipolaris sorokiniana; two day results): NI

Source: US7326689B2, “Pseudomycins useful against plant diseases” (Eli Lilly and Company, priority 2000, dated 2008)
